Source: patent US20060194819A1, “Activation specific inhibitors of nf-kb and method of treating inflammatory processes in cardio-vascular diseases” (PROCORDE GMBH, priority 2003, published 2006)

Experiments:
[1] = biological target: T1, IKK-complex (Homo sapiens, UniProt O14920+O15111+Q9Y6K9); assay: Cellular IKK kinase assay: HeLa cells treated with compound, TNF alpha stimulation, IKK-complex immunoprecipitated with anti-NEMO-antibody, I kappaB peptide phosphorylation by alpha screen; format: cell-based
T1 construct: IKK-complex was immunoprecipitated with anti-NEMO-antibody; endogenous in cells; host or cells: HeLa
T1 sequence (O14920 whole entry): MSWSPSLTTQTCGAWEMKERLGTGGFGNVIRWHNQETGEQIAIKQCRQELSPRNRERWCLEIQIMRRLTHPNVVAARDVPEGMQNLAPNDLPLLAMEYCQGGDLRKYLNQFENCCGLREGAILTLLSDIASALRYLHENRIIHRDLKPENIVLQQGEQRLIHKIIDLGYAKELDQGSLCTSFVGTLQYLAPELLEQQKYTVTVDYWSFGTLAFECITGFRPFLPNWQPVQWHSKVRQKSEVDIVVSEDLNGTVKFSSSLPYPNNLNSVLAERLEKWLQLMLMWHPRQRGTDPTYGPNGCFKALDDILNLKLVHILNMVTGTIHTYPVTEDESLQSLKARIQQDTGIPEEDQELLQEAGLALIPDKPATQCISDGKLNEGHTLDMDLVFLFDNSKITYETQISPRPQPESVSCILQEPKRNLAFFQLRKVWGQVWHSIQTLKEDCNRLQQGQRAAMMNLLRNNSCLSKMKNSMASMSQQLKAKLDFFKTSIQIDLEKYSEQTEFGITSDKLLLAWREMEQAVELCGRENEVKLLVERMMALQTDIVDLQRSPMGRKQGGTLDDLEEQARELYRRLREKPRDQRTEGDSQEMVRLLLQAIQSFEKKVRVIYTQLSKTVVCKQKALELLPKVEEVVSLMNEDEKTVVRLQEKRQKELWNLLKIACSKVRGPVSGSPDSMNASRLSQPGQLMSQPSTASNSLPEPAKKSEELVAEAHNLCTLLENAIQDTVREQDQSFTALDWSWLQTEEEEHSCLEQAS
T1 sequence (O15111 whole entry): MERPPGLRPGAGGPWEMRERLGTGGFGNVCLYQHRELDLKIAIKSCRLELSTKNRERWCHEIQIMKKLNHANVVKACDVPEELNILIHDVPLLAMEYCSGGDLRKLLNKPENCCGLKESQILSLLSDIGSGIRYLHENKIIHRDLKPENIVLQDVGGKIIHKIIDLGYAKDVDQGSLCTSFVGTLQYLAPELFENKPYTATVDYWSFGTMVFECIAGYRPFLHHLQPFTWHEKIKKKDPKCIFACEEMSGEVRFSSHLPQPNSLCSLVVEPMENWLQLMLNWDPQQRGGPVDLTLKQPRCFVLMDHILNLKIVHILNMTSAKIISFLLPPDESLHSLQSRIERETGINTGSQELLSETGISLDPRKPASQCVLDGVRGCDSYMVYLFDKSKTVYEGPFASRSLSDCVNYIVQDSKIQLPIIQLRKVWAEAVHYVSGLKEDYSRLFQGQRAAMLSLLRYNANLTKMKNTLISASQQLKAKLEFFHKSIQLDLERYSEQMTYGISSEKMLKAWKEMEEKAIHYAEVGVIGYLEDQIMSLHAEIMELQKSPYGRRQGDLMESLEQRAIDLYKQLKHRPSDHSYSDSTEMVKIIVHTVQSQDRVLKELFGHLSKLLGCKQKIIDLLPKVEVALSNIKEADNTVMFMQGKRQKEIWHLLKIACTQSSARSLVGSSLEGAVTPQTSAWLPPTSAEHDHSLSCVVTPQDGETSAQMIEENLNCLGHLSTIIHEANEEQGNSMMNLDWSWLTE
T1 sequence (Q9Y6K9 whole entry): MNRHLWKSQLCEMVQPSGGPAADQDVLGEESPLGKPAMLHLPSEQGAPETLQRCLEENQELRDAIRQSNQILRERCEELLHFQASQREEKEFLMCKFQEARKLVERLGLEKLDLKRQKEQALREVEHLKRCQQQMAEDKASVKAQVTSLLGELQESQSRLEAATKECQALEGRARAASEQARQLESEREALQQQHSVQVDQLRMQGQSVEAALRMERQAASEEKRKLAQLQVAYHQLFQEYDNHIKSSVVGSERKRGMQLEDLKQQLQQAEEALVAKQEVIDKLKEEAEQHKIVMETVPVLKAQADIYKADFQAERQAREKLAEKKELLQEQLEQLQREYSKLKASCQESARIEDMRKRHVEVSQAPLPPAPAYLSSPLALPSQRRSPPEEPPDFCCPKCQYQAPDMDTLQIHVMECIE
Experimental: Kinase Assay Protocol: HeLa cells were maintained in Dulbecco's modified Eagle's medium (Invitrogen) supplemented with 10% fetal bovine serum, 2 mM L-glutamine, penicillin (50 units/ml) and streptomycin (50 μg/ml). 24 h before treatment with different compounds HeLa cells were plated at a density of 5×10^6 per well in 100-mm cell culture dishes to 90% confluences.
The cells were incubated with different drugs at the concentration indicated for 1 h, washed twice with PBS and stimulated with 20 ng/ml TNF alpha (Roche). After 7 min the cells were washed twice with ice cold PBS followed by scraping and transferring into a 1.5 ml microcentrifuge tube. After centrifugation by 2000 rpm for 2 min by 4° C. the PBS supernatant was removed and 200 μl Lyse-buffer (10 mM Hepes, pH 7.9, 0.1% NP40, 10 mM, 300 mM Sucrose, 10 mM KCl, 15 mM MgCl2, 1 mM DTT, 0.5 mM PMSF and antipain, aprotinin, leupeptin each 0.75 μg/ml (Sigma) was added to the pellet. The resuspended pellet was incubated on ice for 5 min and centrifuged at 13000 g for 30 s. The supernatant, cytosolic extract, was added to 200 μl TNT-buffer (200 mM NaCl, 20 mM Tris/HCl pH 7.5, 1% Triton X-100). Unspecific binding was blocked by incubation with 3 μg of normal rabbit IgG (Sigma) and 6 mg resuspended and prewashed Protein A Sepharose CI-4B (Pharmacia Biotech) for 30 min by 4° C. followed by immunoprecipitation for 1.5 h at 4° C. with 2 μg of anti-NEMO-antibody (Santa Cruz Biotechnology) and 6 mg resuspented and prewashed Protein A Sepharose CI-4B (Parmacia Biotech). […] 6.6 μl of detection-buffer (20 mM Hepes pH 7.5, 100 mM NaCl, 1% Tween, 0.1 mM BSA, 50 μg/ml Protein A-Acceptor beads, 250 μg/ml Streptavidin-Donor beads (both Perkin-Elmer), 4 nM anti-phospho-IKB antibody (Santa Cruz Biotechnology) was dispensed to each well. After incubation for 1.5 h the plate was measured by alpha screen reader (Perkin Elmer). […]

[2] = biological target: T2, IKKα/β binding to NEMO (Homo sapiens, UniProt O14920+O15111+Q9Y6K9); assay: Degradation of the immunoprecipitated IKK-complex after drug treatment in vitro, Western blot; format: biochemical; conditions: precipitated IKK-complex incubated 1 h with compound
T2 construct: endogenous in cells; host or cells: HeLa (immunoprecipitate with anti-NEMO antibody on Protein A-Sepharose)
T2 sequence (Q9Y6K9 whole entry): as above
T2 sequence (O15111 whole entry): as the sequence (O15111 whole entry) above
T2 sequence (O14920 whole entry): as the sequence (O14920 whole entry) above
Experimental: After immuno-precipitation with anti-NEMO antibody (Santa Cruz) as described earlier, the precipitated and washed IKK-complex was incubated with different concentrations of IKK inhibitors in 20 mM HEPES, pH 8.0, 10 mM MgCl2, 100 μM Na3VO4, 20 mM-glycerophosphate, 50 mM NaCl, 2 mM dithiothreitol, 0.5 μM phenylmethylsulfonyl fluoride, antipain, aprotinin, leupeptin 0.75 μg/ml each (Sigma). After 1 h treatment the probe was centrifuged at 16000 g for 1 min the supernatant was removed totally and the protein A pellet was resuspended in 1×Laemmli-buffer buffer (2% SDS, 2% 2-Mercaptoethanol, 0.01% Bromophenol blue, 8% Glycerine), heated by 60° C. for 10 min and loaded to a 4-20% polyacrylamid gels (BioRad). After electrophoresis the proteins were transferred to a nitrocellulose membrane using the wet blotting technique. First the membrane was blocked with Roti-Block (Roth) and afterwards incubated with monoclonal antibodies against IKKα (Santa Cruz Biotechnology, used at 1:200 dilution). This incubation was followed by the appropriate horseradish peroxidase-conjugated secondary antibody (Dianova) at 1:10000 dilution. Antibody binding was visualized on x-ray film using the Western blot Chemiluminescent Reagent Detection Kit (Santa Cruz). The x-ray film was scanned and the results were analysed by densitometry by the software AIDA.

[3] = Serum levels after single dose IV application in rats, mass spectroscopy; format: in vivo; conditions: 27.5 and 55 μg IV, 2 and 20 minutes
Experimental: COM 56 was diluted in saline-buffer to 100 μM and 200 μM in a volume of 200 μL. The probe was administered intravenously in rats. After 2 min and 20 min a blood probe was taken from the right carotid artery. The blood probes were centrifuged by 2500 g for 3 min and the supernatant, the serum component, were analysed by mass spectroscopy.

## CCOC(=O)C1=C(C)N=c2s/c(=C/c3ccc(-c4cccc(C(=O)O)c4)o3)c(=O)n2C1c1ccc(Cl)cc1 (centres unmarked) [COM 56, 2-[5-(3-Carboxyphenyl)-furan-2-ylmethylene]-5-(4-chlorophenyl)-7-methyl-3-oxo-2,3-dihydro-5H-thiazolo[3,2-a]pyrimidine-6-carboxylic acid ethyl ester]
[1]; HeLa cells, TNF alpha 20 ng/ml, alpha screen, n=4, read-out: IC50 for inhibition of IKK activity (phosphorylation of substrate peptide for I KappaB)
  IC50: ~850 nM
[1]; cellular assay with HeLa cells
  potency to inhibit the IKK activity, higher than the other 73 family members: 10 times
[2]
  disruption of the IKK complex (NEMO binding to IKK-alpha/beta) in vitro: dose-dependently disrupted
[3]
  serum levels after single IV application: considerable serum levels
[3]; listed as compound 56
  serum levels after single IV application: positive serum probes
